Results taken from patent publication US11219218B2, “Methods of enhancing algae production” (Boise State University, priority 2018, dated 2022).
Read-outs that look alike come from different tables or passages of the source.

Experiments:
B. plicatilis [1] = test system: B. plicatilis
Scenedesmus obliquus = conditions: Abeliovich and Azov, 1976; cited from earlier work
Chlorella pyrenoidosa = conditions: Tan et al., 2015; cited from earlier work
Nannochloropsis oculata = conditions: Gutierrez et al., 2016, cited from earlier work
Chlorella sorokiniana = conditions: Gutierrez et al., 2016; cited from earlier work
N. oculata [2] = test system: N. oculata
Brachionus rotifer = conditions: cited from earlier work
N. oculata [3] = conditions: for algal growth rate / final AFDW: co-culture with B. plicatilis; for final AFDW: day eight
Procedure: (§1) Five free ammonia exposure times were chosen (0, 1, 2, 6, and 12 hours) with the goal of identifying which times may lead to an optimal reduction of B. plicatilis populations without negatively affecting N. oculata growth. We also used a rotifer-free control to observe the growth of N. oculata with neither rotifers nor elevated free ammonia exposure relative to experimental treatments. We conducted this experiment in both defined media (f/2) and dairy wastewater (ADE) to observe any differences between media types. For the defined medium trial, we created culture mixtures containing f/2 in ASW, 0.01 M Tris base, N. oculata at approximately 1×10^6 cells mL^−1 and B. plicatilis at approximately 10 rotifers mL^−1. NH4Cl was added to this mixture to initiate the period of free ammonia exposure. Similarly, for the dairy wastewater trial, we created culture mixtures containing ASW, 0.01 M Tris base, N. oculata at approximately 1×10^6 cells mL^−1, and B. plicatilis at approximately 10 rotifers/mL. The initial cell density of N. oculata was meant to represent a high-density culture nearing early stationary phase, which also allowed for increases in cell density. The initial rotifer density was chosen to represent initial stages of a contamination event after exposure of the algal culture to colonizing rotifer pests, at which point contamination is detectable yet treatable. ADE was added to this mixture to initiate the period of free ammonia exposure. For both trials, pH was immediately adjusted to 9 for the 1, 2, 6, and 12 hour treatments and held at this pH for the designated exposure time. The 0 hour and control treatments were adjusted to pH 6.3-6.5 via CO2 addition prior to addition of the ammonium source, thereby eliminating any exposure to elevated free ammonia. […] Thus, all treatments within an experiment received the same amount of CO2 and the same amount of total NH3—N. Flasks were shaken and stirred once daily on a stir plate while pH was being adjusted to desired level. In this experiment, pH was measured and controlled in each treatment using American Marine Pinpoint pH controllers.
(§2) Samples for total NH3—N were collected at the beginning and end of the exposure time for each treatment in order to quantify potential loss of N from the system caused by volatilization of free ammonia. Densities of N. oculata and B. plicatilis were measured at the initial free ammonia exposure time, and every 24 hours thereafter for eight days. Live B. plicatilis were enumerated in triplicate 1 mL counts in a Sedgewick-Rafter counting chamber (Wildco item #EW-05491-64), and growth of N. oculata was tracked by both OD680 measurement and direct cell counts. Final ash free dry weight (AFDW) was measured on day eight for all replicates.
(§3) We chose this range in order to eliminate possible free ammonia inhibition after the designated exposure period while also staying within the pH range for optimal growth of N. oculata.

B. plicatilis [4] = conditions: for effect of elevated free ammonia exposure time on 24-hour rotifer survival: pH 9, exposure 0-12 hours; for mean rotifer densities over the eight-day experiment: f/2 and ADE media
Procedure: as §1, §2, §3

**Q.** With `N` [free ammonia, ammonia] as the compound, how does the “prediction formula for 24-hour rotifer survival against free ammonia concentration (FIG. 1A)” value (B. plicatilis [1]; 5% ADE medium) read?
**A.** Its value is “ln(% survival)=3.606-0.0357*exposure time”.

**Q.** And the “relationship between initial free ammonia concentration and B. plicatilis survival after 24 hours” value (B. plicatilis [1]; 5% dairy ADE, free ammonia 0.77-48.9 mg L^−1 (pH 7-9))?
**A.** The value was “significant negative relationship”.

**Q.** What about the “relationship between initial free ammonia concentration and B. plicatilis survival after 24 hours” value (B. plicatilis [1]; ASW medium with NH4Cl, free ammonia 0.65-41.6 mg L^−1 (pH 7-9)) of the same compound?
**A.** Its value is “significant negative relationship”.

**Q.** What about the “concentration tolerated without inhibition of photosynthesis or growth rate” value (Scenedesmus obliquus) of the same compound?
**A.** Its value is “up to 28 mg/L free NH3—N”.

**Q.** What about the “concentration tolerated without inhibition of photosynthesis or growth rate” value (Chlorella pyrenoidosa) of the same compound?
**A.** Its value is “up to 20 mg/L free NH3—N”.

**Q.** And the “highest level tested, not inhibited” value (Nannochloropsis oculata)?
**A.** Its value is 16 mg free NH3—N.

**Q.** And the “lipid content of N. oculata” value (Nannochloropsis oculata; exposure to high free ammonia levels)?
**A.** Its value is “not significantly altered”.

**Q.** And the “highest level tested, not inhibited” value (Chlorella sorokiniana)?
**A.** The value was 16 mg free NH3—N.

**Q.** And the “effect of free ammonia concentration on final OD680 levels” value (N. oculata [2]; ADE cultures)?
**A.** The value was “no effect”.

**Q.** What about the “effect of initial free ammonia on growth rates” value (N. oculata [2]; ADE medium) of the same compound?
**A.** Its value is “no effect”.

**Q.** And the “OD680 levels of N. oculata with increasing free ammonia levels” value (N. oculata [2]; f/2 medium)?
**A.** The value was “increased”.

**Q.** What about the “effect of initial free ammonia on growth rates” value (N. oculata [2]; f/2 medium) of the same compound?
**A.** The value was “no effect”.

**Q.** What about the “inhibition of N. oculata” value (N. oculata [2]; f/2 or ADE media, any of the free ammonia levels tested, seven days) of the same compound?
**A.** The value was “no observed inhibition”.

**Q.** What about the “concentration that causes complete mortality” value (Brachionus rotifer; Schlüter and Groeneweg, 1985) of the same compound?
**A.** The value was “over 5 mg/L free NH3—N”.

**Q.** And the “concentration that reduces Brachionus rotifer reproduction” value (Brachionus rotifer; de Araujo et al., 2000)?
**A.** The value was at least 2.4 mg/L.

**Q.** What about the “effects on the alga Nannochloropsis oculata” value (N. oculata [3]; 6-12 hours of elevated free ammonia, both media types) of the same compound?
**A.** Its value is “no negative effects”.

**Q.** And the algal growth rate (N. oculata [3]; 6-hour exposure time)?
**A.** The algal growth rate was 0.70 ± 0.01 day⁻¹.

**Q.** What about the “final AFDW” value (N. oculata [3]; 6-hour exposure time) of the same compound?
**A.** Its value is 0.37 ± 0.004 g/L.

**Q.** And the algal growth rate (N. oculata [3]; 12-hour exposure time)?
**A.** Its algal growth rate is 0.60 ± 0.06 day⁻¹.

**Q.** What about the “final AFDW” value (N. oculata [3]; 12-hour exposure time) of the same compound?
**A.** The value was 0.38 ± 0.004 g/L.

**Q.** What about the “prediction formula for 24-hour B. plicatilis survival against exposure time (FIG. 3)” value (B. plicatilis [4]; ADE medium, 52.8 mg L^−1 free ammonia) of the same compound?
**A.** Its value is “ln(% survival)=4.768-0.2902*exposure time”.

**Q.** And the “effect of elevated free ammonia exposure time on 24-hour rotifer survival” value (B. plicatilis [4]; dairy ADE medium)?
**A.** The value was “significantly decreased”.

**Q.** What about the “effect of elevated free ammonia exposure time on 24-hour rotifer survival” value (B. plicatilis [4]; f/2 medium) of the same compound?
**A.** The value was “significantly decreased”.

**Q.** And the “mean rotifer densities over the eight-day experiment” value (B. plicatilis [4]; six-hour exposure time)?
**A.** The value was “remained below the initial density”.

**Q.** And the “mean rotifer densities over the eight-day experiment” value (B. plicatilis [4]; twelve-hour exposure time)?
**A.** Its value is “remained below the initial density”.

**Q.** What about the “rotifer density over the eight-day experiment” value (B. plicatilis [4]; two hours or less of exposure, ADE medium) of the same compound?
**A.** Its value is “proliferated, with up to an order of magnitude increase in rotifer density”.
